Laboratory results taken from ChEMBL document CHEMBL4765274, “The development of advanced structural framework as multi-target-directed ligands for the treatment of Alzheimer's disease” (Eur J Med Chem, 2020).
The source made the active and inactive calls. The rule behind the calls is not given here.

How the values were obtained:
Acetylcholinesterase [1] = molecular target: Acetylcholinesterase (Electrophorus electricus, UniProt O42275); assay: Inhibition of electric eel AChE by Ellman's method
[2] = Antioxidant activity assessed as trolox equivalent of AAPH radical scavenging activity measured every min for 4 hrs by ORAC-FL assay relative to trolox; assay type: functional
[3] = Inhibition of Cu2+-induced amyloid beta (1 to 42 residues) (unknown origin) aggregation at 25 uM after 24 hrs by thioflavin-T fluorescence method relative to control
SH-SY5Y = assay: Cytotoxicity against human SH-SY5Y cells assessed as cell viability up to 100 uM after 48 hrs by MTT assay relative to control; assay type: cell-based
Acetylcholinesterase [4] = molecular target: Acetylcholinesterase (Homo sapiens, UniProt P22303); assay: Mixed type inhibition of human AChE using acetylthiocholine as substrate by Line-weaver Burk plot analysis
Mus musculus [5] = assay: Antialzheimer activity in scopolamine-induced Kunming mouse model of memory impairment assessed as Q30 bases ratio (raw data) in brain hippocampus at 5 mg/kg , po by illumina sequencing method (reference value: 93.53%); assay type: functional
[6] = Toxicity in 2 dpf zebra fish assessed as pericardial edema at 25 ug/ml after 3 days relative to control; design: species or system Danio rerio; details: zebrafish, 72 h, at 25 µg/mL, time 3 day
Cholinesterase = Cholinesterase (Homo sapiens, UniProt P06276); assay: Inhibition of human BChE assessed as residual activity at IC50 concentration relative to control
[7] = (§1) Binding affinity to amyloid beta (1 to 42 residues) (unknown origin) by biolayer interferometry analysis; design: species or system Homo sapiens
Homo sapiens = species on record: Homo sapiens; assay: as §1
HT-22 [8] = assay: Cytotoxicity against mouse HT-22 cells assessed as reduction in cell viability after 24 hrs by MTT assay; assay type: cell-based; details: HT-22, 24 h
[9] = Effect on GFP expression in mouse HT-22 cells expressing pEGFP-N1 at 10 uM after 24 hrs by fluorescence microscopic method; assay type: ADME, cell-based; details: ht-22, 24 h
HT-22 [10] = assay: Activation of ubiquitin-proteasome system in mouse HT-22 cells expressing pRK5-GFP-Tau P301L mutant assessed as increase in tau degradation by measuring reduction in GFP level at 2.5 to 20 uM after 24 hrs by flow cytometric analysis; assay type: cell-based; details: filed as activator, dose 2.5-20 µM
HT-22 [11] = assay: Activation of ubiquitin-proteasome system in mouse HT-22 cells expressing pRK5-GFP-Tau P301L mutant assessed as increase in tau degradation by measuring reduction in GFP level at 2.5 to 20 uM after 24 hrs by Western blot analysis; assay type: cell-based; details: filed as activator, dose 2.5-20 µM
HT-22 [12] = assay: Activation of ubiquitin-proteasome system in mouse HT-22 cells expressing pEGFP-N1-APP assessed as increase in APP degradation by measuring reduction in GFP level at 2.5 to 20 uM after 24 hrs by fluorescence microscopic method; assay type: cell-based; details: filed as activator, dose 2.5-20 µM
HT-22 [13] = assay: Activation of ubiquitin-proteasome system in mouse HT-22 cells expressing pEGFP-N1-APP assessed as increase in APP degradation by measuring reduction in GFP level at 2.5 to 20 uM after 24 hrs by Western blot analysis; assay type: cell-based; details: filed as activator, dose 2.5-20 µM
HT-22 [14] = assay: Activation of ubiquitin-proteasome system in mouse HT-22 cells expressing YFP-CLI assessed as reduction in GFP level at 10 uM after 24 hrs by fluorescence microscopic method; assay type: cell-based; details: filed as activator
[15] = Toxicity in 2 dpf zebra fish at 25 ug/ml after 3 days; design: species or system Danio rerio; details: zebrafish, 72 h; dose 25 µg/ml, time 3 day
[16] = Toxicity in 2 dpf zebra fish assessed as yolk sac absorption delay at 8.33 ug/ml after 3 days relative to control; design: species or system Danio rerio; details: zebrafish, 72 h, at 8.33 µg/mL, time 3 day
[17] = Toxicity in 2 dpf zebra fish assessed as short or misshapen jaw at 25 ug/ml after 3 days relative to control; design: species or system Danio rerio; details: zebrafish, 72 h, at 25 µg/mL, time 3 day
[18] = Toxicity in 2 dpf zebra fish assessed as short or misshapen eye at 25 ug/ml after 3 days relative to control; design: species or system Danio rerio; details: zebrafish, 72 h, at 25 µg/mL, time 3 day
[19] = Toxicity in 3 dpf zebra fish assessed as mortality at 25 ug/ml (reference value: 0%); design: species or system Danio rerio; details: zebrafish, at 25 µg/mL, read-out: Activity
[20] = Toxicity in 3 dpf zebra fish assessed as mortality at 100 ug/ml (reference value: 0%); design: species or system Danio rerio; details: zebrafish, at 100 µg/mL, read-out: Activity
Danio rerio [21] = species on record: Danio rerio; assay: Antialzheimer activity in amyloid beta (1 to 40 residues)-induced zebra fish AD model assessed as reduction in vascular injury at 0.09 ug/ml relative to control; assay type: functional; design: scale not given: the % may be the effect or the level left; details: dose 0.09 µg/ml
Danio rerio [22] = species on record: Danio rerio; assay: Antialzheimer activity in amyloid beta (1 to 40 residues)-induced zebra fish AD model assessed as reduction in vascular injury at 0.26 ug/ml relative to control; assay type: functional; design: scale not given: the % may be the effect or the level left; details: dose 0.26 µg/ml
Mus musculus [23] = assay: Antialzheimer activity in scopolamine-induced Kunming mouse model of memory impairment assessed as total mapped in brain hippocampus at 5 mg/kg , po by illumina sequencing method (reference value: 97.13%); assay type: functional
[24] = Drug metabolism in human liver microsomes assessed as metabolite formation by UPLC-TOF analysis; assay type: ADME, Microsome

Acetylcholinesterase (Homo sapiens, UniProt P22303), sequence (P22303 whole entry): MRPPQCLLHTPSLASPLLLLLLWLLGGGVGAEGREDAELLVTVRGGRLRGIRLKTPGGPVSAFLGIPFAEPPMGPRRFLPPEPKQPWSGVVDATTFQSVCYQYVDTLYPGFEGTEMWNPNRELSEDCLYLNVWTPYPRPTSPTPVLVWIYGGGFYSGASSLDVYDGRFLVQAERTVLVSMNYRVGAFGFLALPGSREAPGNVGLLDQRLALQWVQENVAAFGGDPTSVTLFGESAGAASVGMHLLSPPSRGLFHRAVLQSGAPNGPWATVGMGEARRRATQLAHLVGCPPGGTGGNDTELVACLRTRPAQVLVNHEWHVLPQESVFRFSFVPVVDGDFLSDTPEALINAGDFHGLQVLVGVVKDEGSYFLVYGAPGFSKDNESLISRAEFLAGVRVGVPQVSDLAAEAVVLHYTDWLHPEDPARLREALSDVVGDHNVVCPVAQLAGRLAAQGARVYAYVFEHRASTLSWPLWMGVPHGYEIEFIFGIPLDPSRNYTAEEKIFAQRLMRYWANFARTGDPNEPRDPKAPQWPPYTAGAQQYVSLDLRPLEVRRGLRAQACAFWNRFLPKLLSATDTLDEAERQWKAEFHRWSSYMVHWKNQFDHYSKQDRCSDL
Cholinesterase, sequence (P06276 whole entry, the tested form may be a part): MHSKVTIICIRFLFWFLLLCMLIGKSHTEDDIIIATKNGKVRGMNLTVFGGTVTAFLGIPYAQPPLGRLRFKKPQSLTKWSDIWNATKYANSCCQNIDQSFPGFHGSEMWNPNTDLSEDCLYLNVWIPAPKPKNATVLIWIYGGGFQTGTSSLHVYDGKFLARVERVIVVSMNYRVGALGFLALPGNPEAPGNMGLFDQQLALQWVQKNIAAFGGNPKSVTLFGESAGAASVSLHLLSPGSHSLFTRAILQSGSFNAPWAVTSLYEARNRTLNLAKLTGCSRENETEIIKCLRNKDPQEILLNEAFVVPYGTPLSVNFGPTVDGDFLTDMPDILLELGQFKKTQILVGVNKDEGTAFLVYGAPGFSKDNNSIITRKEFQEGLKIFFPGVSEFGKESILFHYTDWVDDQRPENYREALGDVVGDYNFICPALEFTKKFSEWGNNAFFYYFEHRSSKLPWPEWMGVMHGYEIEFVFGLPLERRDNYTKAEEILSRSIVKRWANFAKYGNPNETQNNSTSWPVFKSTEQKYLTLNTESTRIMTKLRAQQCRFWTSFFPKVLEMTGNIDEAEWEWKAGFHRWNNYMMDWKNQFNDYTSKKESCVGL
Acetylcholinesterase (Electrophorus electricus, UniProt O42275), sequence (O42275 whole entry): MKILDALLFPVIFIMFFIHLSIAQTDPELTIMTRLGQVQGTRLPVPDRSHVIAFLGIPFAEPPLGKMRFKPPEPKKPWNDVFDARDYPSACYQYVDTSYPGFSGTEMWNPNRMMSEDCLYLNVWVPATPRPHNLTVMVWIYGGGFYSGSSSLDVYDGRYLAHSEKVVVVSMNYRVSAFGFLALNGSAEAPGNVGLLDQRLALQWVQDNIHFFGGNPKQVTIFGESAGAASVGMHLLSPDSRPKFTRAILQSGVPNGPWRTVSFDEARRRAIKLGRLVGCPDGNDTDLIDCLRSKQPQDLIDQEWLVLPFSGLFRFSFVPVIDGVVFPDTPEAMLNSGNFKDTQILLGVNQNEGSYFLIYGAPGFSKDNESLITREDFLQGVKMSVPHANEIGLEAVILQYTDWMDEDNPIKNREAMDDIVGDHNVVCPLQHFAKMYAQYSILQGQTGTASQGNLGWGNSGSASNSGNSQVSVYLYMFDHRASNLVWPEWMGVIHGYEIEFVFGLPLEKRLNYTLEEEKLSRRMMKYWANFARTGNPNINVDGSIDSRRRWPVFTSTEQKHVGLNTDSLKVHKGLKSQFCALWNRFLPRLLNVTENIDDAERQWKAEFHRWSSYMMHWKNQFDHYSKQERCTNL

CCN(CCCCOc1ccc(-c2cc(=O)c3c(O)cc(OCCCCN(CC)Cc4ccccc4)cc3o2)cc1)Cc1ccccc1
IC50 (Acetylcholinesterase [1]): 3700 nM
fold change (FC) [2]: 1.2
inhibition [3]: 81.3%
Activity (SH-SY5Y): Non-Toxic
Ki (Acetylcholinesterase [4]): 394 nM
Activity (Mus musculus [5]): 93.58%
Activity [6]: 60%
Activity (Cholinesterase): 49.7%
Kd [7]: 1200 nM
Activity (Homo sapiens): Dose-dependent effect
IC50 (HT-22 [8]): 39700 nM
Activity [9]: Non-Toxic
Activity (HT-22 [10]): Active
Activity (HT-22 [11]): Active
Activity (HT-22 [12]): Active
Activity (HT-22 [13]): Active
Activity (HT-22 [14]): Active
Activity [15]: Non-Toxic
Activity [16]: 73.3%
Activity [17]: 56.7%
Activity [18]: 433%
mortality at 25 ug/ml [19]: 100%
mortality at 100 ug/ml [20]: 100%
Activity (Danio rerio [21]): 9%
Activity (Danio rerio [22]): 12%
Activity (Mus musculus [23]): 97.39%
Drug metabolism [24]: Metabolite_Detected
